What was measured:
human TOR = molecular target: T1, human TOR (Homo sapiens, UniProt P42345); assay: mTOR enzyme assay (DELFIA format, purified FLAG-TOR, His6-S6K substrate); assay type: biochemical; conditions: 100 μM ATP, 1.25 μM His6-S6K, 2 hours at room temperature; read-out: TOR Kinase Median IC50
T1 construct: FLAG

PI3 Kinase = assay: PI3K fluorescence polarization assay; assay type: biochemical; conditions: 25 μM ATP, diC8-PI(4,5)P2 substrate, 1 hour at 25° C.; read-out: PI3 Kinase Median IC50
Protocol: Nunc 384 well black polypropylene fluorescent plates are used for PI3K assays. Reactions are quenched by the addition of EDTA to a final concentration of 10 mM. Final reaction volumes are 10 μl. […] Reactions are allowed to proceed for one hour at 25° C. After 1 hour, GST-tagged GRP1 (general receptor for phosphoinositides) PH domain fusion protein is added to a final concentration of 100 nM, and BODIPY-TMRI(1,3,4,5)P4 (Echelon) is also added to a final concentration of 5 nM. Final sample volumes are 25 μl with a final DMSO concentration of 0.8%. Assay Plates are read on Perkin-Elmer Envision plate readers with appropriate filters for Tamra [BODIPY-TMRI(1,3,4,5)P4].

Row | SMILES | IC50 (human TOR) [nM] | IC50 (PI3 Kinase) [nM]
1 | c1csc(-c2nc(N3CCOCC3)c3nc[nH]c3n2)c1 [Compound 1, 6-morpholin-4-yl-2-(2-thienyl)-9H-purine] | 2800 | 724
2 | c1nc2c(N3CCOCC3)nc(-c3ccsc3)nc2[nH]1 [Compound 2, 6-morpholin-4-yl-2-(3-thienyl)-9H-purine] | 3900 | 3290
3 | Oc1ccccc1-c1nc(N2CCOCC2)c2nc[nH]c2n1 [Compound 3, 2-(6-morpholin-4-yl-9H-purin-2-yl)phenol] | 2500 | 
4 | Oc1ccc(-c2nc(N3CCOCC3)c3nc[nH]c3n2)cc1 [Compound 4, 4-(6-morpholin-4-yl-9H-purin-2-yl)phenol] | 450 | 2680
5 | OCc1ccc(-c2nc(N3CCOCC3)c3nc[nH]c3n2)cc1 [Compound 5, [4-(6-morpholin-4-yl-9H-purin-2-yl)phenyl]methanol] | 4500 | 3750
6 | c1cc2cc(-c3nc(N4CCOCC4)c4nc[nH]c4n3)ccc2[nH]1 [Compound 6, 2-(1H-indol-5-yl)-6-morpholin-4-yl-9H-purine] | 180 | 2750
7 | c1nc2c(N3CCOCC3)nc(-c3ccc4c(c3)OCO4)nc2[nH]1 [Compound 7, 2-(1,3-benzodioxol-5-yl)-6-morpholin-4-yl-9H-purine] | 8900 | 1230
8 | O=[N+]([O-])c1cccc(-c2nc(N3CCOCC3)c3nc[nH]c3n2)c1 [Compound 8, 6-morpholin-4-yl-2-(3-nitrophenyl)-9H-purine] |  | 8900
9 | c1ccc2c(-c3nc(N4CCOCC4)c4nc[nH]c4n3)csc2c1 [Compound 9, 2-(1-benzothien-3-yl)-6-morpholin-4-yl-9H-purine] |  | 2000
10 | FC(F)(F)c1cccc(-c2nc(N3CCOCC3)c3nc[nH]c3n2)c1 [Compound 10, 6-morpholin-4-yl-2-[3-(trifluoromethyl)phenyl]-9H-purine] |  | 5710
11 | Cc1cccc(-c2nc(N3CCOCC3)c3nc[nH]c3n2)c1 [Compound 11, 2-(3-methylphenyl)-6-morpholin-4-yl-9H-purine] |  | 4210
12 | CC(C)c1cccc(-c2nc(N3CCOCC3)c3nc[nH]c3n2)c1 [Compound 12, 2-(3-isopropylphenyl)-6-morpholin-4-yl-9H-purine] |  | 9920
13 | N#Cc1cccc(-c2nc(N3CCOCC3)c3nc[nH]c3n2)c1 [Compound 13, 3-(6-morpholin-4-yl-9H-purin-2-yl)benzonitrile] |  | 3590
14 | c1ccc(-c2cccc(-c3nc(N4CCOCC4)c4nc[nH]c4n3)c2)cc1 [Compound 14, 2-biphenyl-3-yl-6-morpholin-4-yl-9H-purine] |  | 4440
15 | c1ccc(Oc2ccccc2-c2nc(N3CCOCC3)c3nc[nH]c3n2)cc1 [Compound 16, 6-morpholin-4-yl-2-(2-phenoxyphenyl)-9H-purine] |  | 8940
16 | CN(C)C(=O)c1ccc(-c2nc(N3CCOCC3)c3nc[nH]c3n2)cc1 [Compound 17, N,N-dimethyl-4-(6-morpholin-4-yl-9H-purin-2-yl)benzamide] |  | 5930
17 | c1nc2c(N3CCOCC3)nc(-c3ccoc3)nc2[nH]1 [Compound 19, 2-(3-furyl)-6-morpholin-4-yl-9H-purine] |  | 4340
18 | Oc1cccc(-c2nc(N3CCCCC3)c3nc[nH]c3n2)c1 [Compound 21, 3-(6-Piperidin-1-yl-9H-purin-2-yl)-phenol] |  | 4300

Row | SMILES | IC50 (human TOR) [nM] | IC50 (PI3 Kinase) [nM]
19 | CS(=O)(=O)c1ccc(-c2nc(N3CCOCC3)c3nc[nH]c3n2)cc1 [Compound 22, 2-(4-Methanesulfonyl-phenyl)-6-morpholin-4-yl-9H-purine] |  | 2160
20 | COc1cc(COc2cccc(-c3nc(N4CCOCC4)c4nc[nH]c4n3)c2)cc(OC)c1 [Compound 23, 2-[3-(3,5-Dimethoxy-benzyloxy)-phenyl]-6-morpholin-4-yl-9H-purine] | 16500 | 6200
21 | Clc1cc(-c2nc(N3CCOCC3)c3nc[nH]c3n2)ccc1OCc1ccccc1 [Compound 24, 2-(4-Benzyloxy-3-chloro-phenyl)-6-morpholin-4-yl-9H-purine] | > 20000 | 4530
22 | OCc1cccc(-c2nc(N3CCOCC3)c3ncn(C4CCNCC4)c3n2)c1 [Compound 25, [3-(6-Morpholin-4-yl-9-piperidin-4-yl-9H-purin-2-yl)-phenyl]-methanol] | 7200 | 57
23 | CC(=O)N1CCC(n2cnc3c(N4CCOCC4)nc(-c4cccc(CO)c4)nc32)CC1 [Compound 26, 1-(4-(2-(3-(hydroxymethyl)phenyl)-6-morpholino-9H-purin-9-yl)piperidin-1-yl)ethanone] | 2100 | 189
24 | Oc1cccc(-c2nc(N3CCOCC3)c3ncn(CC4CCN(Cc5ccccc5)CC4)c3n2)c1 [Compound 27, 3-(9-((1-benzylpiperidin-4-yl)methyl)-6-morpholino-9H-purin-2-yl)phenol] | 600 | 193
25 | Oc1cccc(-c2nc(N3CCOCC3)c3ncn(C4CCN(Cc5ccccc5)CC4)c3n2)c1 [Compound 28, 3-(9-(1-benzylpiperidin-4-yl)-6-morpholino-9H-purin-2-yl)phenol] | 140 | 
26 | OCc1cccc(-c2nc(N3CCOCC3)c3ncn(C4CCN(Cc5ccccc5)CC4)c3n2)c1 [Compound 33, {3-[9-(1-benzylpiperidin-4-yl)-6-morpholin-4-yl-9H-purin-2-yl]phenyl}methanol] | 700 | 
27 | Oc1cncc(-c2nc(N3CCOCC3)c3ncn(C4CCN(Cc5ccc(Cl)cc5)CC4)c3n2)c1 [Compound 38, 5-{9-[1-(4-chlorobenzyl)piperidin-4-yl]-6-morpholin-4-yl-9H-purin-2-yl}pyridin-3-ol] | 160 | 
28 | Cc1ccc(CN2CCC(n3cnc4c(N5CCOCC5)nc(-c5cncc(O)c5)nc43)CC2)cc1 [Compound 40, 5-{9-[1-(4-methylbenzyl)piperidin-4-yl]-6-morpholin-4-yl-9H-purin-2-yl}pyridin-3-ol] | 590 | 
29 | OCc1cccc(-c2nc(N3CCOCC3)c3ncn(C4CCN(Cc5ccc(-c6ccncc6)cc5)CC4)c3n2)c1 [Compound 47, (3-{6-morpholin-4-yl-9-[1-(4-pyridin-4-ylbenzyl)piperidin-4-yl]-9H-purin-2-yl}phenyl)methanol] | 720 | 
30 | OCc1cccc(-c2nc(N3CCOCC3)c3ncn(C4CCN(Cc5ccccc5)CC4)c3n2)c1 [Compound 51, {3-[9-(1-benzylpiperidin-4-yl)-6-morpholin-4-yl-9H-purin-2-yl]phenyl}methanol] | 1000 | 
31 | COc1cccc(-c2nc(N3CCOCC3)c3nc[nH]c3n2)c1 [Compound 53, 4-(2-(3-methoxyphenyl)-9H-purin-6-yl)morpholine] | > 20000 | 
32 | c1ccc(-c2nc(N3CCOCC3)c3nc[nH]c3n2)cc1 [Compound 54, 4-(2-phenyl-9H-purin-6-yl)morpholine] | 19000 | 
33 | Oc1cccc(-c2nc(N3CCOCC3)c3nc[nH]c3n2)c1 [Compound 55, 3-(6-morpholino-9H-purin-2-yl)phenol] | 2120 | 
34 | Oc1cccc(-c2nc(N3CCOCC3)c3ncn(C4CCN(Cc5cccnc5)CC4)c3n2)c1 [Compound 76, 3-{6-morpholin-4-yl-9-[1-(pyridin-3-ylmethyl)piperidin-4-yl]-9H-purin-2-yl}phenol] | 170 | 
35 | Oc1cccc(-c2nc(N3CCOCC3)c3ncn(C4CCN(Cc5ccc(Br)nc5)CC4)c3n2)c1 [Compound 81, 3-(9-{1-[(6-bromopyridin-3-yl)methyl]piperidin-4-yl}-6-morpholin-4-yl-9H-purin-2-yl)phenol] | 120 | 
